Test results reported in patent publication US20140329863A1 (priority 2011, published 2014).
Read-outs that look alike come from different tables or passages of the source.

What was measured:
[1] = test system: PrP^Sc in dividing ScN2a-cl3 cells; format: cell-based, mouse; set-up: Dividing ELISA pEC50 (μM) 1st Expt. / Dividing ELISA pEC50 (μM) 2nd Expt. / Dividing ELISA pEC50 (μM) 3rd Expt. / Dividing ELISA pEC50 (μM) Mean: unit not given here
[2] = test system: PrP^Sc in nondividing ScN2a-cl3 cells; format: cell-based, mouse; conditions: read-out: Non-Dividing ELISA EC50 (μM) Mean (n = 3); ScN2a-c13 non-dividing cells; mean n = 3
N2a-cl3 cells = conditions: read-out: Dividing Calcein EC50 (μM) Mean (n = 3)
MDCK-MDR1 cells = experiment: Permeability in MDCK-MDR1 cells; conditions: MDR1-MDCK cell monolayers
[3] = Hepatic microsomal stability, rat; conditions: […]

In the case of `Cc1ccc(Nc2nc(-c3ccncc3)cs2)nc1` [compound 23], the EC50 ([1]; ScN2a-cl3 cells, read-out: Antiprion activity ScN2a-cl3 EC50) is reported as 1.57 µM, the “Dividing ELISA pEC50 (μM) 1st Expt.” value ([1]; ScN2a-cl3 dividing cells, 1st determination) is reported as 5.95 and the EC50 ([1]; ScN2a-cl3 dividing cells, 1st determination, read-out: Dividing ELISA EC50 (μM) 1st Expt.) is reported as 1.12 µM. For the same compound, the “Dividing ELISA pEC50 (μM) 2nd Expt.” value ([1]; ScN2a-cl3 dividing cells, 2nd determination) was 5.76, the EC50 ([1]; ScN2a-cl3 dividing cells, 2nd determination, read-out: Dividing ELISA EC50 (μM) 2nd Expt.) was 1.75 µM and the “Dividing ELISA pEC50 (μM) 3rd Expt.” value ([1]; ScN2a-cl3 dividing cells, 3rd determination) was 5.73. For the same compound, the EC50 ([1]; ScN2a-cl3 dividing cells, 3rd determination, read-out: Dividing ELISA EC50 (μM) 3rd Expt.) was 1.85 µM, the “Dividing ELISA pEC50 (μM) Mean” value ([1]; ScN2a-cl3 dividing cells, mean of three determinations) was 5.81 and the EC50 ([1]; ScN2a-cl3 dividing cells, mean of three determinations, read-out: Dividing ELISA EC50 (μM) Mean) was 1.57 µM. For the same compound, the EC50 [2] was greater than 32 µM, the EC50 (N2a-cl3 cells) was greater than 32 µM and the “Permeability PA→B” value (MDCK-MDR1 cells; apical to basal) was 32.6 10^−6 cm/sec. The “Permeability PB→A” value (MDCK-MDR1 cells; basal to apical) was 42.3 10^−6 cm/sec and the “Microsome stability T1/2” value [3] was 20 min.
